Data from patent US20050170041A1, “Chewing gum compositions comprising monatin and methods for making same” (Cargill, Inc., priority 2003, published 2005).
“Also recorded” adds a separate entry of the source.

Key:
[1] = Sensory stability of monatin and aspartame at pH 2.5, 3.0, 4.0 at 40° C.; format: physicochemical; details: for Rate constant (k) of sweetness loss: 40° C., pseudo-first order assumed; for SEV Monatin / Retention of Monatin Sweetness: stored at 40° C., monatin ~55 ppm
Procedure: The sensory stability of monatin solutions prepared at pH 2.5, 3.0 and 4.0 and stored at 40° C. was monitored for 100 days. Loss of sweetness from these solutions was compared with the losses of sweetness from aspartame solutions prepared and stored under identical conditions.
The sensory stability of monatin (8% SEV, ˜55 ppm, synthetic blend containing approximately 96% of the 2R,4R/2S, 4S enantiometric pair and 4% of the 2R,4S/2S,4R enantiometric pair) in phosphate/citrate buffers having a pH of 2.5, 3.0, and 4.0 was examined after storage at 40° C. The stability of monatin was compared to that of aspartame (400 ppm) in the same buffers. Three sucrose reference solutions were prepared in the same phosphate/citrate buffers as the monatin and aspartame solutions. All prepared solutions were stored in the dark.
The sweetness of each sweetener relative to sucrose was assessed in duplicate by a panel (n=8) of trained sensory evaluators experienced in the sweetness estimation procedure. All samples (in the same buffers) were served in duplicate at a temperature of 22° C.±1° C. Monatin (test) solutions, coded with 3 digit random number codes were presented individually to panelists, in random order. Sucrose reference standards, ranging from 4.0-10.0% (w/v) sucrose, increasing in steps of 0.5% (w/v) sucrose were also provided. Panelists were asked to estimate sweetness by comparing the sweetness of the test solution to the sucrose standards. This was carried out by taking 3 sips of the test solution, followed by a sip of water, followed by 3 sips of sucrose standard followed by a sip of water, etc. Panelists were encouraged to estimate the sweetness to one decimal place, e.g., 6.8, 8.5. A five minute rest period was imposed between evaluating the test solutions. Panelists were also asked to rinse well and eat a cracker to reduce any potential carry over effects.
If a pseudo-first order breakdown reaction is assumed, a plot of logn percentage retention versus time (logn % RTN v. t) allows estimation of the half-life (t½) and rate constant (k) of sweetness loss under any given set of conditions. In so doing, the kinetics of monatin and aspartame sweetness loss may be summarized as follows in Table 14.

[2] = Quantitative synergy of monatin in blends with other sweeteners; format: in vivo

Compound: NC(CC(O)(Cc1c[nH]c2ccccc12)C(=O)O)C(=O)O (stereo not shown) [Monatin, 2-hydroxy-2-(indol-3-ylmethyl)-4-aminoglutaric acid]
- stability of sweetness compared with aspartame ([1]; acidic conditions and storage at 40° C.): more stable sweetness than does aspartame
- percentage retention of sweetness compared with aspartame ([1]; each pH (2.5, 3.0, 4.0), after 100 days storage at 40° C.): greater than that retained with aspartame; also recorded: greater than that retained from aspartame
- Rate constant (k) of sweetness loss ([1]; pH 2.5): 0.011 day⁻¹
- Sweetness Retained ([1]; pH 2.5, after 100 days storage at 40° C.): 29%
- SEV Monatin ([1]; pH 2.5, day 0): 7.35 % sucrose
- Retention of Monatin Sweetness ([1]; pH 2.5, day 1): 93.3%
- SEV Monatin ([1]; pH 2.5, day 1): 6.86 % sucrose
- Retention of Monatin Sweetness ([1]; pH 2.5, day 2): 91.2%
- SEV Monatin ([1]; pH 2.5, day 2): 6.70 % sucrose
- Retention of Monatin Sweetness ([1]; pH 2.5, day 3): 88.4%
- SEV Monatin ([1]; pH 2.5, day 3): 6.50 % sucrose
- Retention of Monatin Sweetness ([1]; pH 2.5, day 4): 85.2%
- SEV Monatin ([1]; pH 2.5, day 4): 6.26 % sucrose
- Retention of Monatin Sweetness ([1]; pH 2.5, day 7): 82.7%
- SEV Monatin ([1]; pH 2.5, day 7): 6.08 % sucrose
- Retention of Monatin Sweetness ([1]; pH 2.5, day 8): 81.4%
- SEV Monatin ([1]; pH 2.5, day 8): 5.98 % sucrose
- Retention of Monatin Sweetness ([1]; pH 2.5, day 9): 80.1%
- SEV Monatin ([1]; pH 2.5, day 9): 5.89 % sucrose
- Retention of Monatin Sweetness ([1]; pH 2.5, day 11): 78.6%
- SEV Monatin ([1]; pH 2.5, day 11): 5.78 % sucrose
- Retention of Monatin Sweetness ([1]; pH 2.5, day 50): 62.7%
- SEV Monatin ([1]; pH 2.5, day 50): 4.61 % sucrose
- Retention of Monatin Sweetness ([1]; pH 2.5, day 100): 28.6%
- SEV Monatin ([1]; pH 2.5, day 100): 2.10 % sucrose
- Rate constant (k) of sweetness loss ([1]; pH 3.0): 0.006 day⁻¹
- Sweetness Retained ([1]; pH 3.0, after 100 days storage at 40° C.): 58%
- SEV Monatin ([1]; pH 3.0, day 0): 7.08 % sucrose
- Retention of Monatin Sweetness ([1]; pH 3.0, day 1): 99.6%
- SEV Monatin ([1]; pH 3.0, day 1): 7.05 % sucrose
- Retention of Monatin Sweetness ([1]; pH 3.0, day 2): 93.2%
- SEV Monatin ([1]; pH 3.0, day 2): 6.60 % sucrose
- Retention of Monatin Sweetness ([1]; pH 3.0, day 3): 91.4%
- SEV Monatin ([1]; pH 3.0, day 3): 6.47 % sucrose
- Retention of Monatin Sweetness ([1]; pH 3.0, day 4): 91.6%
- SEV Monatin ([1]; pH 3.0, day 4): 6.49 % sucrose
- Retention of Monatin Sweetness ([1]; pH 3.0, day 7): 85.3%
- SEV Monatin ([1]; pH 3.0, day 7): 6.04 % sucrose
- Retention of Monatin Sweetness ([1]; pH 3.0, day 8): 83.8%
- SEV Monatin ([1]; pH 3.0, day 8): 5.93 % sucrose
- Retention of Monatin Sweetness ([1]; pH 3.0, day 9): 83.1%
- SEV Monatin ([1]; pH 3.0, day 9): 5.88 % sucrose
- Retention of Monatin Sweetness ([1]; pH 3.0, day 11): 83.1%
- SEV Monatin ([1]; pH 3.0, day 11): 5.88 % sucrose
- Retention of Monatin Sweetness ([1]; pH 3.0, day 50): 72.3%
- SEV Monatin ([1]; pH 3.0, day 50): 5.12 % sucrose
- Retention of Monatin Sweetness ([1]; pH 3.0, day 100): 57.9%
- SEV Monatin ([1]; pH 3.0, day 100): 4.10 % sucrose
- Rate constant (k) of sweetness loss ([1]; pH 4.0): 0.003 day⁻¹
- Sweetness Retained ([1]; pH 4.0, after 100 days storage at 40° C.): 78%
- SEV Monatin ([1]; pH 4.0, day 0): 7.40 % sucrose
- Retention of Monatin Sweetness ([1]; pH 4.0, day 3): 95.7%
- SEV Monatin ([1]; pH 4.0, day 3): 7.08 % sucrose
- Retention of Monatin Sweetness ([1]; pH 4.0, day 8): 86.8%
- SEV Monatin ([1]; pH 4.0, day 8): 6.42 % sucrose
- Retention of Monatin Sweetness ([1]; pH 4.0, day 11): 85.9%
- SEV Monatin ([1]; pH 4.0, day 11): 6.36 % sucrose
- Retention of Monatin Sweetness ([1]; pH 4.0, day 17): 82.4%
- SEV Monatin ([1]; pH 4.0, day 17): 6.10 % sucrose
- Retention of Monatin Sweetness ([1]; pH 4.0, day 24): 84.5%
- SEV Monatin ([1]; pH 4.0, day 24): 6.25 % sucrose
- Retention of Monatin Sweetness ([1]; pH 4.0, day 50): 82.9%
- SEV Monatin ([1]; pH 4.0, day 50): 6.14 % sucrose
- Retention of Monatin Sweetness ([1]; pH 4.0, day 100): 78.4%
- SEV Monatin ([1]; pH 4.0, day 100): 5.80 % sucrose
- quantitative synergy with cyclamates ([2]; blend with cyclamates): quantitatively synergistic
- quantitative synergy with other sweeteners ([2]; with aspartame, saccharin, acesulfame-K, sucralose, or carbohydrate sweeteners): no significant quantitative synergy
